In one series the test system is GPR55‐deficient ABH mice. The series can be described thus: Spasticity in GPR55‐deficient mice. In kind it is in vivo, mouse. Particulars: 10 mg·kg^−1 i.v.
A short description of series [1]: Plasma levels in toxicological studies, dogs. In kind it is in vivo. Particulars: both sexes, Beagle, dog, po, 30 min following 50 mg·kg^−1 p.o., read-out: VSN16R detected in plasma. How it is done:
Twenty‐eight day toxicology in rats and dogs for Investigational New Drug filing was performed by Charles Rivers (UK). Reproductive toxicology in rabbits was performed by Charles Rivers (Canada). Pharmacokinetic and/or toxicological doses ranged from 5 to 1000 mg·kg^−1 p.o. in Sprague Dawley male and female rats (n = 6‐26 per group), 50–200 mg·kg^−1 p.o. in male and female Beagle dogs (n = 6 per group) and 100–750 mg·kg^−1 p.o. in female New Zealand white rabbits (n = 9 per group). Results are expressed as mean ± SD.
The stability of compounds when subjected to hepatic and plasma degradation was assessed in vitro by Inpharmatica, Cambridge, UK. […] Samples were centrifuged, and the resultant supernatant analysed for parent compound. The mass responses at baseline were taken as the 100% reference values against which the disappearance of the compound was measured. […] Half‐life values were calculated from the slope of these plots. Hepatocyte metabolism was assessed by Cyprotex, Macclesfield, and 10 μM VSN16R was incubated with primary mouse, rat, monkey (Macaque) and human hepatocytes for 1 h, and the presence of metabolites was assessed using liquid […] mass spectroscopy. The stability of VSN16R was assessed in vivo by Inpharmatica, Cyprotex and Charles Rivers, Cambridge. […] Data are expressed as mean ± SEM. […]

The nature of series [2]: Phase I pharmacokinetics in healthy humans. In kind it is in vivo, human. On the procedure: The stability of compounds when subjected to hepatic and plasma degradation was assessed in vitro by Inpharmatica, Cambridge, UK. Compounds (1 μM) were incubated with either pooled mouse liver microsomes (0.1 mg protein mL^−1) or pooled mouse plasma at 37°C for 0, 5, 10, 20 and 40 min before termination with acetonitrile containing warfarin as an analytical internal standard. Samples were centrifuged, and the resultant supernatant analysed for parent compound. The mass responses at baseline were taken as the 100% reference values against which the disappearance of the compound was measured. The natural log of the % remaining values was used to generate linear plots of disappearance of the compounds. Half‐life values were calculated from the slope of these plots. Hepatocyte metabolism was assessed by Cyprotex, Macclesfield, and 10 μM VSN16R was incubated with primary mouse, rat, monkey (Macaque) and human hepatocytes for 1 h, and the presence of metabolites was assessed using liquid […] mass spectroscopy. The stability of VSN16R was assessed in vivo by Inpharmatica, Cyprotex and Charles Rivers, Cambridge. Blood (plasma) samples were obtained prior to and 5 min to 24 h after drug administration of 2–5 mg·kg^−1 i.v. or 5 mg·kg^−1 p.o. VSN16R into outbred mice and rats (n = 3 per time point). In addition, plasma, brain and spinal cord samples were obtained from ABH with spastic EAE. Immediately after blood collection, the brain and spinal cord were removed and then stored at −20°C prior to assay. Tissue samples were weighed, homogenized and centrifuged, and the lysates generated. Brain lysates and plasma were assayed by LC–MS methods by Inpharmatica/Charles Rivers, Cambridge, UK. This was also performed using a Waters Xevo TQ or API4000, AB Sciex mass spectrometer using spiked samples as standards. PK Solutions Software (Summit Research Services, Montrose, CO, USA), AB Sciex Analyst software combined with Thermo Fisher Scientific Watson LIMS processing and reporting software or WinNonLin pharmacokinetic or PK solutions 2.0 software (Summit Research Services, Montrose CO, USA) were used to produce PK parameters. Data are expressed as mean ± SEM. The detection limit of VSN16R was 2 ng·mL^−1 in plasma and brain and 14 ng·mL^−1 in spinal cords.

The target of another series is T1, CCR1 (Homo sapiens, UniProt P32246).
T1 construct: purchased Cerep; Chantest; DiscoveRx; Multispan; MDS Pharma Services
The series can be described thus: Receptor binding profile of VSN16R. Particulars: 10µM VSN16R.

The target in another series is T2, hERG Kv11.1 K+ channel (Homo sapiens, UniProt Q12809).
T2 construct: purchased Cerep; Chantest; DiscoveRx; Multispan; MDS Pharma Services
The series can be described thus: Receptor binding profile of VSN16R. Particulars: tested to 100 µM.

Some results are limits rather than exact numbers.

As a reminder, the bioavailability is the share of a dose that reaches the circulation, judged against a reference dose that is usually intravenous. Low readings indicate poor availability, high ones good availability.

T1 sequence (P32246 whole entry): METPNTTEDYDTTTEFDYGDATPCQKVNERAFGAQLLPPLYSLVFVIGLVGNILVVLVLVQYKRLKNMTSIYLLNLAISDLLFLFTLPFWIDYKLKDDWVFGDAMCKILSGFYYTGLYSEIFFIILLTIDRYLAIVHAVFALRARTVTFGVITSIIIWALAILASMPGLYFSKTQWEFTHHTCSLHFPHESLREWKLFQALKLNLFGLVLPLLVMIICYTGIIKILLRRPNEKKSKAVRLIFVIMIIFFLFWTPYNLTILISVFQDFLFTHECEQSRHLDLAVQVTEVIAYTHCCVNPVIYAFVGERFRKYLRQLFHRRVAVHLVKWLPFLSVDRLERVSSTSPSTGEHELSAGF
T2 sequence (Q12809 whole entry): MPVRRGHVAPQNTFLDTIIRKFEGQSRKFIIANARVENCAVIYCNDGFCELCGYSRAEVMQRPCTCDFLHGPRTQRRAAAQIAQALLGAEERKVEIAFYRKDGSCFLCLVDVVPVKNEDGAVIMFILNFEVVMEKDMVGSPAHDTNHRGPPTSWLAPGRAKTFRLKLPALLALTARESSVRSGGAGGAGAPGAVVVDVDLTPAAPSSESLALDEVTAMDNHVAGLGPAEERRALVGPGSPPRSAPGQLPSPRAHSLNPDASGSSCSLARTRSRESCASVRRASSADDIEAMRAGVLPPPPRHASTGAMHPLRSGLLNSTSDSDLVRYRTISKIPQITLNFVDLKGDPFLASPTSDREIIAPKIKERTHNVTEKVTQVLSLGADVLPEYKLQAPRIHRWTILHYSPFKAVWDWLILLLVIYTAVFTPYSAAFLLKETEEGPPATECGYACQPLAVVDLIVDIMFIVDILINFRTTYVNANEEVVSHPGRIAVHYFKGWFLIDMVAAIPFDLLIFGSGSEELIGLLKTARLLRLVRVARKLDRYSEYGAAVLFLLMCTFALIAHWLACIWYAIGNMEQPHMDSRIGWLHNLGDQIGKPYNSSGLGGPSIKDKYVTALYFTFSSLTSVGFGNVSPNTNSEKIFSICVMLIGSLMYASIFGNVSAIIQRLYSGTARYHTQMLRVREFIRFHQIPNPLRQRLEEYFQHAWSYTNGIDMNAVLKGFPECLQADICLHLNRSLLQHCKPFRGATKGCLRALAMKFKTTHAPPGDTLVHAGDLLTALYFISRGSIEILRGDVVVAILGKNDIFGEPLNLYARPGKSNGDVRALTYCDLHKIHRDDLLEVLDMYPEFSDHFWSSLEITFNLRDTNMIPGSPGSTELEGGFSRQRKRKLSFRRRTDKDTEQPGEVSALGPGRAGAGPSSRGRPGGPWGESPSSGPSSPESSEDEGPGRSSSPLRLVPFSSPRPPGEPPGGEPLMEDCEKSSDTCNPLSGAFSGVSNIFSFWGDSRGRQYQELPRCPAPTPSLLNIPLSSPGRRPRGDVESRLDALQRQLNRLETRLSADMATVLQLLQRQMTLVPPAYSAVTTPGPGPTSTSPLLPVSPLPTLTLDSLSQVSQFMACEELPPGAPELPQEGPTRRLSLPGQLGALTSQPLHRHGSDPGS

As for `C[C@H](CO)NC(=O)c1cccc(/C=C\CCCC(=O)N(C)C)c1` [VSN16R], the Inhibition of spasticity result in the series with GPR55‐deficient ABH mice is given as “continued to inhibit spasticity”. The concentration at 30 min in series [1] turned out to be 82 µM. The “Effect of feeding on pharmacokinetics” value in series [2] (200 mg p.o., fed within 0.5 h of dosing) is “delayed the time of the Cmax (Tmax) and reduced Cmax”. Moreover, the concentration at 1 week in series [2] (male, human, plasma, oral, twice daily dosing of VSN16R, read-out: Steady‐state plasma levels) is > 0.1 µM. The same molecule displayed a bioavailability in series [2] (male, human, plasma, po, 25 mg p.o.) of 100%. In series [2] (over the dose range studied, 25–800 mg), this molecule returned a Terminal elimination of 3.4 to 4.9 h. Further, the Activity result on CCR1 and on hERG Kv11.1 K+ channel was “Negligible Activity” in each case.

The values above are taken from paper PMC5522996, “Big conductance calcium‐activated potassium channel openers control spasticity without sedation” (British Journal of Pharmacology, 2017).
